These are literature values, as cited in patent US20200171025A1, “PHARMACEUTICAL COMPOSITION COMPRISING BREXPIPRAZOLE AND PROCESS FOR PREPARATION THEREOF” (priority 2018, published 2020).

For the series the following is noted: as per BCS.

Turning to `O=c1ccc2ccc(OCCCCN3CCN(c4cccc5sccc45)CC3)cc2[nH]1` [Brexpiprazole, 7-{4-[4-(1-Benzothiophen-4-yl)piperazin-1-yl]butoxy}quinolin-2(1H)-one], the Aqueous solubility result is on record as “low aqueous solubility” and the Permeability result is on record as “high permeability”.
